Consider six molecules from PMC4658428 (Frontiers in Microbiology, 2015).

The target of series [1] is LdtR wild type (Liberibacter asiaticus). Description: SEC. A general note: SEC sorts molecules by how far they enter the pores of the column.
In series [2] the test system is WT LdtR. The series is classed as biochemical, Liberibacter asiaticus.
The subject of series [3] is WT LdtR. The series is classed as binding, Liberibacter asiaticus.
The test system of series [4] is WT LdtR, lacZ reporter in B. subtilis strain BS6. The series is classed as cell-based, Bacillus subtilis.
For a further series, the system named is B. subtilis cells. In kind it is cell-based, Bacillus subtilis.
For series [5], the system named is S. meliloti strain SMP5 (1021-pBBR1MCS-5). The series is classed as cell-based, Sinorhizobium meliloti.
In series [6] the test system is S. meliloti strain SMP2A (ΔldtRSMc-pBBR1MCS-5). The series is classed as cell-based.
Series [7] concerns S. meliloti strain SMP2B (ΔldtRSMc-pBBR1MCS-5::LdtR). In kind it is cell-based.
A further series addresses LdtR Wild type (Candidatus Liberibacter asiaticus, UniProt A0ABN4AZS1).
The subject of the next series is LdtR. Particulars: cited from earlier work.
In another series the target is ST1710. Particulars: read-out: affinity value; cited from earlier work.
Series [8] concerns LdtR WT (Liberibacter asiaticus). Description: EMSA.

One may read the stoichiometry N as the number of molecules, sites or subunits per partner or assembly. In series [1], LdtR wild type (natural protein) showed a stoichiometry N of 2.

Take `CCc1oc2ccccc2c1C(=O)c1cc(Br)c(O)c(Br)c1` [benzbromarone]: the “excess of benzbromarone at which the LdtR:DNA complex is disrupted” value in the series with WT LdtR [2] was 10 fold excess. Also, in the series with WT LdtR [3], the “change in melting temperature (ΔTm)” value is -1.8 ± 0.2 °C and the “decrease of melting temperature” value was determined as 3.6 ± 0.2 °C. Also, in series [4], the “reduction of β-galactosidase activity” value came to 40%. Further, the “concentrations found to be toxic to the cells” value in the series on B. subtilis cells is reported as “higher than 5 μM”. In series [5], the “Growth rate constant, k” value is recorded as 0.044 ± 0.003 generations/h; the Mean generation time is on record as 22.7 h; the “increase of the duplication time on addition of benzbromarone” value worked out at 39%. For the same molecule, in series [6], the “Growth rate constant, k” value was 0.042 ± 0.002 generations/h and the Mean generation time amounted to 23.8 h. Further, in series [7], the “Growth rate constant, k” value was 0.045 ± 0.002 generations/h; the Mean generation time is on record as 22.2 h; the “increase of the duplication time on addition of benzbromarone” value is reported as 25%. On LdtR Wild type, this molecule had an N of 0.34 ± 0.08, a ΔG of -7.5 kcal/mol, a ΔH of -3.0 ± 1.0 kcal/mol and a ΔS of 14.9 cal/mol/deg. For the same molecule, in the series with LdtR, the “effect on LdtR binding to DNA” value is “inhibitors of LdtR binding to DNA”.

For `CC[C@H](c1ccc(O)cc1)[C@@H](CC)c1ccc(O)cc1` [hexestrol], the “effect on LdtR binding to DNA” value in the series with LdtR is on record as “inhibitors of LdtR binding to DNA”.

Consider `CC[n+]1c(-c2ccccc2)c2cc(N)ccc2c2ccc(N)cc21` [ethidium], for which, on ST1710, the Kd was 13.7 µM.

As to `O=C(CCc1ccc(O)cc1)c1c(O)cc(O)cc1O` [phloretin], the “effect on LdtR binding to DNA” value with LdtR is on record as “inhibitors of LdtR binding to DNA”.

For the molecule PldtP, the K half in series [8] was found to be 200 nM.
